In general, Km refers to the substrate concentration at which the rate is half of its maximum.

This is an account of results in paper PMC10873021 (Biochemistry, 2023).

Assay [1] concerns PglJ Cc 33237. The note with it: 20 μM Und-PP-diNAcBac-GalNAc; 0.1 nM enzyme; 5 mM MgCl2; 0.1% Triton X-100; 50 mM HEPES pH 7.5; 100 mM NaCl.
Assay [2] has as its system PglJ Cc 13826. The note with it: 20 μM Und-PP-diNAcBac-GalNAc; 0.1 nM enzyme; 5 mM MgCl2; 0.1% Triton X-100; 50 mM HEPES pH 7.5; 100 mM NaCl.
A further assay has as its target PglJ Cj 11168 (Campylobacter jejuni, UniProt Q0P9C7). The assay can be described thus: UDP-Glo glycosyltransferase assay, UDP-sugar screen. In kind it is biochemical. The note with it: 10 nM enzyme; 25 μM UDP-sugar; 20 μM Und-PP-diNAcBac-GalNAc; 5 mM MgCl2; pH 7.5.
The subject of assay [3] is PglJ Cc 33237. The note with it: 25 μM UDP-sugar; 20 μM Und-PP-diNAcBac-GalNAc; 5 mM MgCl2; pH 7.5; varying enzyme.
For assay [4], the system named is PglJ Cc 33237. The note with it: 1 mM ligand; 10 mM HEPES pH 7.5; 150 mM NaCl; 5% glycerol; 2 mM DTT; 0.03% DDM.
Assay [5] concerns PglJ Cc 13826. The note with it: 1 mM ligand; 10 mM HEPES pH 7.5; 150 mM NaCl; 5% glycerol; 2 mM DTT; 0.03% DDM.

Molecules are shown by their SMILES.

Turning to `CC(=O)N[C@H]1[C@@H](OP(=O)(O)OP(=O)(O)OC[C@H]2O[C@@H](n3ccc(=O)[nH]c3=O)[C@H](O)[C@@H]2O)O[C@H](C(=O)O)[C@H](O)[C@@H]1O` [UDP-GalNAcA], the Km was 7.4 ± 2.5 µM with PglJ Cc 33237 [1] and 3.8 ± 1.9 µM in the assay on PglJ Cc 13826 [2].

For `CC(=O)N[C@H]1[C@@H](OP(=O)(O)OP(=O)(O)OC[C@H]2O[C@@H](n3ccc(=O)[nH]c3=O)[C@H](O)[C@@H]2O)O[C@H](CO)[C@H](O)[C@@H]1O` [UDP-GalNAc], the “UDP-Glo glycosyltransferase assay, UDP-sugar screen” value at PglJ Cj 11168 is “At the same concentration, the PglJ from C. jejuni preferred UDP-GalNAc”; in the assay with PglJ Cc 33237 [3] it was “this variant now transfers GalNAc from UDP-GalNAc onto the growing Und-PP-glycan”.

For the compound `CC(=O)N[C@H]1[C@@H](OP(=O)(O)OP(=O)(O)OC[C@H]2O[C@@H](n3ccc(=O)[nH]c3=O)[C@H](O)[C@@H]2O)O[C@H](C(=O)O)[C@@H](O)[C@@H]1O` [UDP-GlcNAcA], the dTm entry in the assay on PglJ Cc 33237 [4] is “(UDP-GalNAcA and UDP-GlcNAcA) stabilized the PglJ enzymes from both strains of C. concisus studied”; in the assay on PglJ Cc 13826 [5], “(UDP-GalNAcA and UDP-GlcNAcA) stabilized the PglJ enzymes from both strains of C. concisus studied”.

With `O=c1ccn([C@@H]2O[C@H](COP(=O)(O)OP(=O)(O)O)[C@@H](O)[C@H]2O)c(=O)[nH]1` [UDP], the dTm result is given as “Significant stabilization was observed with UDP, the nucleotide product of the glycosyltransferase reaction” in the assay with PglJ Cc 33237 [4] and “Significant stabilization was observed with UDP, the nucleotide product of the glycosyltransferase reaction” in the assay with PglJ Cc 13826 [5].
